According to the CheMixHub viscosity set:
± gives the uncertainty stated by the source.

Test: xn = mol fraction of the nth substance listed

CCCCOCCO + CCCCCCC
viscosity [mPa·s], 101 kPa
Conditions | 303.15 K | 313.15 K
x1 = 0.0365 | 0.407 ± 0.006 | 0.364 ± 0.005
x1 = 0.1077 | 0.484 ± 0.006 | 0.426 ± 0.006
x1 = 0.2126 | 0.626 ± 0.008 | 0.534 ± 0.007
x1 = 0.316 | 0.799 ± 0.009 | 0.661 ± 0.008
x1 = 0.417 | 0.987 ± 0.011 | 0.797 ± 0.009
x1 = 0.5114 | 1.177 ± 0.012 | 0.941 ± 0.01
x1 = 0.6155 | 1.411 ± 0.014 | 1.116 ± 0.012
x1 = 0.7469 | 1.741 ± 0.017 | 1.359 ± 0.014
x1 = 0.845 | 2.011 ± 0.019 | 1.55 ± 0.016
x1 = 0.9057 | 2.162 ± 0.02 | 1.654 ± 0.017
x1 = 0.9663 | 2.306 ± 0.021 | 1.784 ± 0.017

CCOC(=O)CCl + CCCCCCC
viscosity [mPa·s], 101.33 kPa
Conditions | x1 = 0.1037 | x1 = 0.203 | x1 = 0.3009 | x1 = 0.4005 | x1 = 0.4992 | x1 = 0.6048 | x1 = 0.705 | x1 = 0.8022 | x1 = 0.8954
298.15 K | 0.419 ± 0.01 | 0.45 ± 0.01 | 0.484 ± 0.011 | 0.53 ± 0.012 | 0.585 ± 0.013 | 0.651 ± 0.015 | 0.726 ± 0.017 | 0.817 ± 0.019 | 0.93 ± 0.023
303.15 K | 0.398 ± 0.008 | 0.424 ± 0.009 | 0.457 ± 0.01 | 0.498 ± 0.011 | 0.545 ± 0.012 | 0.608 ± 0.013 | 0.676 ± 0.015 | 0.761 ± 0.017 | 0.859 ± 0.019
308.15 K | 0.378 ± 0.008 | 0.402 ± 0.009 | 0.432 ± 0.009 | 0.469 ± 0.01 | 0.522 ± 0.011 | 0.569 ± 0.012 | 0.634 ± 0.013 | 0.71 ± 0.015 | 0.8 ± 0.017

CCOC(=O)CCl + CCCCCCCC
viscosity [mPa·s], 101.33 kPa
Conditions | x1 = 0.1027 | x1 = 0.2003 | x1 = 0.3048 | x1 = 0.4033 | x1 = 0.5064 | x1 = 0.6021 | x1 = 0.7042 | x1 = 0.8031 | x1 = 0.9017
298.15 K | 0.524 ± 0.008 | 0.553 ± 0.009 | 0.586 ± 0.009 | 0.618 ± 0.011 | 0.666 ± 0.011 | 0.718 ± 0.012 | 0.782 ± 0.014 | 0.855 ± 0.016 | 0.953 ± 0.019
303.15 K | 0.493 ± 0.007 | 0.518 ± 0.008 | 0.551 ± 0.009 | 0.577 ± 0.009 | 0.621 ± 0.01 | 0.669 ± 0.011 | 0.723 ± 0.012 | 0.796 ± 0.013 | 0.884 ± 0.014
308.15 K | 0.465 ± 0.007 | 0.487 ± 0.007 | 0.519 ± 0.008 | 0.541 ± 0.008 | 0.584 ± 0.009 | 0.624 ± 0.01 | 0.676 ± 0.011 | 0.741 ± 0.012 | 0.82 ± 0.013

COC(=O)c1ccccc1 + CCCCCCCC
101 kPa
Conditions | viscosity [mPa·s]
298.15 K, x2 = 0.0356 | 1.698 ± 0.053
298.15 K, x2 = 0.0736 | 1.572 ± 0.049
298.15 K, x2 = 0.1081 | 1.474 ± 0.046
298.15 K, x2 = 0.1549 | 1.349 ± 0.042
298.15 K, x2 = 0.1926 | 1.265 ± 0.04
298.15 K, x2 = 0.2388 | 1.169 ± 0.037
298.15 K, x2 = 0.3669 | 0.961 ± 0.03
298.15 K, x2 = 0.4093 | 0.905 ± 0.028
298.15 K, x2 = 0.4513 | 0.855 ± 0.027
298.15 K, x2 = 0.5041 | 0.796 ± 0.025
298.15 K, x2 = 0.55 | 0.754 ± 0.024
298.15 K, x2 = 0.6034 | 0.707 ± 0.022
298.15 K, x2 = 0.6567 | 0.669 ± 0.021
298.15 K, x2 = 0.7105 | 0.634 ± 0.02
298.15 K, x2 = 0.7575 | 0.606 ± 0.019
298.15 K, x2 = 0.8645 | 0.558 ± 0.018
298.15 K, x2 = 0.9387 | 0.533 ± 0.017
308.15 K, x2 = 0.0548 | 1.358 ± 0.042
308.15 K, x2 = 0.0935 | 1.263 ± 0.039
308.15 K, x2 = 0.1329 | 1.177 ± 0.037
308.15 K, x2 = 0.1743 | 1.099 ± 0.034
308.15 K, x2 = 0.216 | 1.026 ± 0.032
308.15 K, x2 = 0.2531 | 0.967 ± 0.03
308.15 K, x2 = 0.2946 | 0.909 ± 0.029
308.15 K, x2 = 0.341 | 0.852 ± 0.027
308.15 K, x2 = 0.3823 | 0.806 ± 0.025
308.15 K, x2 = 0.4247 | 0.763 ± 0.024
308.15 K, x2 = 0.4738 | 0.719 ± 0.023
308.15 K, x2 = 0.5182 | 0.685 ± 0.022
308.15 K, x2 = 0.5728 | 0.645 ± 0.02
308.15 K, x2 = 0.6245 | 0.612 ± 0.019
308.15 K, x2 = 0.6742 | 0.583 ± 0.018
308.15 K, x2 = 0.7274 | 0.558 ± 0.018
308.15 K, x2 = 0.774 | 0.536 ± 0.017
308.15 K, x2 = 0.8351 | 0.512 ± 0.016
308.15 K, x2 = 0.9135 | 0.486 ± 0.016
318.15 K, x2 = 0.0668 | 1.147 ± 0.036
318.15 K, x2 = 0.0719 | 1.139 ± 0.036
318.15 K, x2 = 0.112 | 1.068 ± 0.033
318.15 K, x2 = 0.1404 | 1.022 ± 0.032
318.15 K, x2 = 0.1952 | 0.94 ± 0.029
318.15 K, x2 = 0.2418 | 0.876 ± 0.027
318.15 K, x2 = 0.2828 | 0.823 ± 0.026
318.15 K, x2 = 0.3337 | 0.764 ± 0.024
318.15 K, x2 = 0.3678 | 0.729 ± 0.023
318.15 K, x2 = 0.4175 | 0.682 ± 0.022
318.15 K, x2 = 0.463 | 0.644 ± 0.02
318.15 K, x2 = 0.5158 | 0.605 ± 0.019
318.15 K, x2 = 0.5624 | 0.576 ± 0.018
318.15 K, x2 = 0.6149 | 0.548 ± 0.017
318.15 K, x2 = 0.6664 | 0.525 ± 0.017
318.15 K, x2 = 0.7241 | 0.502 ± 0.016
318.15 K, x2 = 0.7767 | 0.485 ± 0.015
318.15 K, x2 = 0.8373 | 0.468 ± 0.015
318.15 K, x2 = 0.8921 | 0.453 ± 0.015

c1ccc2c(c1)CCCC2 + CCCCCCCC
viscosity [mPa·s], 101 kPa
Conditions | x2 = 0.0997 | x2 = 0.2011 | x2 = 0.3013 | x2 = 0.3997 | x2 = 0.5003 | x2 = 0.5995 | x2 = 0.7001 | x2 = 0.8014 | x2 = 0.8955
293.15 K | 1.831 ± 0.013 | 1.527 ± 0.012 | 1.303 ± 0.01 | 1.143 ± 0.009 | 0.976 ± 0.009 | 0.85 ± 0.008 | 0.747 ± 0.007 | 0.673 ± 0.007 | 0.612 ± 0.007
298.15 K | 1.675 ± 0.012 | 1.405 ± 0.011 | 1.207 ± 0.01 | 1.063 ± 0.009 | 0.918 ± 0.008 | 0.811 ± 0.008 | 0.702 ± 0.007 | 0.635 ± 0.007 | 0.58 ± 0.007
303.15 K | 1.533 ± 0.012 | 1.294 ± 0.01 | 1.118 ± 0.009 | 0.989 ± 0.009 | 0.857 ± 0.008 | 0.762 ± 0.008 | 0.662 ± 0.007 | 0.599 ± 0.007 | 0.55 ± 0.007
313.15 K | 1.308 ± 0.01 | 1.117 ± 0.009 | 0.971 ± 0.009 | 0.866 ± 0.008 | 0.757 ± 0.007 | 0.675 ± 0.007 | 0.592 ± 0.007 | 0.539 ± 0.006 | 0.496 ± 0.006
